Assay results reported in publication PMC5346723, “Delivery of a peptide-drug conjugate targeting the blood brain barrier improved the efficacy of paclitaxel against glioma” (Oncotarget, 2016).
Peptide text beside a SMILES is read from it. * marks the point of attachment. Biotin = O=C1N[C@H]2[C@H](CS[C@H]2CCCCC(=O)*)N1

Tests used:
U87 glioblastoma cells = assay: MTT assay; type: cell-based, human; conditions: 1 × 10^5 cells/100 μl/well, 96-well, 37°C, sample concentration for the table not stated (0.1-2.5 mg/mL tested), absorbance 570 nm
Experimental: The cytotoxicity of ANG, ANG-TAT, ANG-PTX and ANG-TAT-PTX were determined using the 3-[4,5-dimethylthiazol-2-yl]-2,5-diphenyl tetrazolium bromide (MTT) assay. Human U87 glioblastoma cell (1×10^5 cells/100 μl per well) were cultured in 96-well plates at 37°C in 5% CO2. Aqueous solutions of the samples were dissolved in culture medium at final concentrations of 0.1, 0.5, 1, and 2.5 mg/mL. After incubation for 24 and 48 hours, the MTT solution (in 2 mg/mL phosphate-buffered saline) was added, the plates were incubated for 4 hours, and the cells were lysed with 50% N, N-dimethylformamide containing 20% sodium dodecyl sulfate (pH 4.5). Absorbance at 570 nm was measured for each well using a SpectraMax M5 (Molecular Devices, Sunnyvale, CA USA). The absorbance of control cells was taken as 100% viability, and the values of the treated cells were calculated as a percentage of the control.

[1] = system: U87 glioblastoma brain tumor tissue; assay: Brain extraction of biotin labelled peptides after tail vein injection in mice with intracerebral U87 tumors; type: in vivo, CD-1 nude mice; conditions: 50 μg/kg, brain removed 15 min after injection, tumor implanted right hemisphere, biotin quantitative kit, P<0.05
Experimental: Biotin ANG and biotin ANG-TAT (50 μg/kg body weight) were injected into the tail vein of CD-1 nude mice carrying intracerebral implants of U87 glioblastoma cells. Fifteen minutes after injection the mice were killed, and the brains were surgically removed. The brain tissues were dissected and maintained in cold saline containing protease inhibitors until processing. To compare normal and tumor brain tissue, the right hemisphere (implanted hemisphere) was compared with the left hemisphere (non-implanted hemisphere). To extract biotin ANG and biotin ANG-TAT, tissues were mechanically homogenized in homogenization buffer (0.1 M Tris–HCl, pH 5.0, 50 mM sucrose, 0.003% Tween-80, and protease inhibitor cocktail) on ice. Acetonitrile (ACN) 100% was added to a final concentration of 65% (v/v). The mixture was stirred for 10 min in a cold room and then centrifuged at 3000 r.p.m. for 5 min. Acetonitrile supernatants were collected and dried in a rotative evaporator and finally freeze-dried. The concentration of biotin ANG and biotin ANG-TAT in the samples was determined using biotin quantitative kit from Elabsciences, Inc (Shanghai, China).
The U87 cell line was used to assess peptide uptake in an animal model of glioma. Cells suspension were prepared at a final concentration of 1×10^4 cells/ml in PBS and kept on ice until injection. […]

Row | Compound | MTT assay of ANG-TAT-PTX in tumor cells, 24h (U87 glioblastoma cells; 5% CO2, 24 h incubation) | MTT assay of ANG-TAT-PTX in tumor cells, 48h (U87 glioblastoma cells; 5% CO2, 48 h incubation) | Amount extracted from tumor tissue relative to biotin ANG [1] [fold]
1 | CC(=O)O[C@H]1C(=O)[C@@]2(C)[C@H]([C@H](OC(=O)c3ccccc3)[C@]3(O)C[C@H](OC(=O)[C@H](O)[C@@H](NC(=O)c4ccccc4)c4ccccc4)C(C)=C1C3(C)C)[C@]1(OC(C)=O)CO[C@@H]1C[C@@H]2O [Free PTX, Paclitaxel] | 20.53±2.21 | 42.36±2.35 | 
2 | C[C@@H](O)[C@H](N)C(=O)N[C@@H](Cc1ccccc1)C(=O)N[C@@H](Cc1ccccc1)C(=O)N[C@@H](Cc1ccc(O)cc1)C(=O)NCC(=O)NCC(=O)N[C@@H](CO)C(=O)N[C@@H](CCCNC(=N)N)C(=O)NCC(=O)N[C@@H](CCCCN)C(=O)N[C@@H](CCCNC(=N)N)C(=O)N[C@@H](CC(N)=O)C(=O)N[C@@H](CC(N)=O)C(=O)N[C@@H](Cc1ccccc1)C(=O)N[C@@H](CCCCNC(=O)CCCC[C@@H]1SC[C@@H]2NC(=O)N[C@@H]21)C(=O)N[C@H](C(=O)N[C@@H](CCC(=O)O)C(=O)N[C@@H](CCC(=O)O)C(=O)N[C@@H](Cc1ccc(O)cc1)C(=O)NCC(=O)N[C@@H](CCCNC(=N)N)C(=O)N[C@@H](CCCCN)C(=O)N[C@@H](CCCCN)C(=O)N[C@@H](CCCNC(=N)N)C(=O)N[C@@H](CCCNC(=N)N)C(=O)N[C@@H](CCC(N)=O)C(=O)N[C@@H](CCCNC(=N)N)C(=O)N[C@@H](CCCNC(=N)N)C(=O)N[C@@H](CCCNC(=N)N)C(=O)N1CCC[C@H]1C(=O)N1CCC[C@H]1C(=O)N[C@@H](CCC(N)=O)C(=O)N[C@@H](CCC(N)=O)C(=O)O)[C@@H](C)O [biotin ANG-TAT] (H-TFFYGGSRGKRNNFK(Biotin)TEEYGRKKRRQRRRPPQQ-OH) |  |  | 1.8
